Legend:
N-type calcium channel [1] = target: T1, N-type calcium channel (Homo sapiens, UniProt Q00975); test: N-type calcium channel antagonistic activity, changed procedure (fluorescence dye method, calculated from inhibition rates); assay type: cell-based; conditions: IMR-32 cells, 60 mM KCl stimulation, Table 3, read-out: N-type inhibition pIC50 (converted)
N-type calcium channel [2] = target: T1, N-type calcium channel; test: Antagonistic activity on N-type calcium channel (fluorescence dye method); assay type: cell-based

T1 sequence (Q00975 whole entry): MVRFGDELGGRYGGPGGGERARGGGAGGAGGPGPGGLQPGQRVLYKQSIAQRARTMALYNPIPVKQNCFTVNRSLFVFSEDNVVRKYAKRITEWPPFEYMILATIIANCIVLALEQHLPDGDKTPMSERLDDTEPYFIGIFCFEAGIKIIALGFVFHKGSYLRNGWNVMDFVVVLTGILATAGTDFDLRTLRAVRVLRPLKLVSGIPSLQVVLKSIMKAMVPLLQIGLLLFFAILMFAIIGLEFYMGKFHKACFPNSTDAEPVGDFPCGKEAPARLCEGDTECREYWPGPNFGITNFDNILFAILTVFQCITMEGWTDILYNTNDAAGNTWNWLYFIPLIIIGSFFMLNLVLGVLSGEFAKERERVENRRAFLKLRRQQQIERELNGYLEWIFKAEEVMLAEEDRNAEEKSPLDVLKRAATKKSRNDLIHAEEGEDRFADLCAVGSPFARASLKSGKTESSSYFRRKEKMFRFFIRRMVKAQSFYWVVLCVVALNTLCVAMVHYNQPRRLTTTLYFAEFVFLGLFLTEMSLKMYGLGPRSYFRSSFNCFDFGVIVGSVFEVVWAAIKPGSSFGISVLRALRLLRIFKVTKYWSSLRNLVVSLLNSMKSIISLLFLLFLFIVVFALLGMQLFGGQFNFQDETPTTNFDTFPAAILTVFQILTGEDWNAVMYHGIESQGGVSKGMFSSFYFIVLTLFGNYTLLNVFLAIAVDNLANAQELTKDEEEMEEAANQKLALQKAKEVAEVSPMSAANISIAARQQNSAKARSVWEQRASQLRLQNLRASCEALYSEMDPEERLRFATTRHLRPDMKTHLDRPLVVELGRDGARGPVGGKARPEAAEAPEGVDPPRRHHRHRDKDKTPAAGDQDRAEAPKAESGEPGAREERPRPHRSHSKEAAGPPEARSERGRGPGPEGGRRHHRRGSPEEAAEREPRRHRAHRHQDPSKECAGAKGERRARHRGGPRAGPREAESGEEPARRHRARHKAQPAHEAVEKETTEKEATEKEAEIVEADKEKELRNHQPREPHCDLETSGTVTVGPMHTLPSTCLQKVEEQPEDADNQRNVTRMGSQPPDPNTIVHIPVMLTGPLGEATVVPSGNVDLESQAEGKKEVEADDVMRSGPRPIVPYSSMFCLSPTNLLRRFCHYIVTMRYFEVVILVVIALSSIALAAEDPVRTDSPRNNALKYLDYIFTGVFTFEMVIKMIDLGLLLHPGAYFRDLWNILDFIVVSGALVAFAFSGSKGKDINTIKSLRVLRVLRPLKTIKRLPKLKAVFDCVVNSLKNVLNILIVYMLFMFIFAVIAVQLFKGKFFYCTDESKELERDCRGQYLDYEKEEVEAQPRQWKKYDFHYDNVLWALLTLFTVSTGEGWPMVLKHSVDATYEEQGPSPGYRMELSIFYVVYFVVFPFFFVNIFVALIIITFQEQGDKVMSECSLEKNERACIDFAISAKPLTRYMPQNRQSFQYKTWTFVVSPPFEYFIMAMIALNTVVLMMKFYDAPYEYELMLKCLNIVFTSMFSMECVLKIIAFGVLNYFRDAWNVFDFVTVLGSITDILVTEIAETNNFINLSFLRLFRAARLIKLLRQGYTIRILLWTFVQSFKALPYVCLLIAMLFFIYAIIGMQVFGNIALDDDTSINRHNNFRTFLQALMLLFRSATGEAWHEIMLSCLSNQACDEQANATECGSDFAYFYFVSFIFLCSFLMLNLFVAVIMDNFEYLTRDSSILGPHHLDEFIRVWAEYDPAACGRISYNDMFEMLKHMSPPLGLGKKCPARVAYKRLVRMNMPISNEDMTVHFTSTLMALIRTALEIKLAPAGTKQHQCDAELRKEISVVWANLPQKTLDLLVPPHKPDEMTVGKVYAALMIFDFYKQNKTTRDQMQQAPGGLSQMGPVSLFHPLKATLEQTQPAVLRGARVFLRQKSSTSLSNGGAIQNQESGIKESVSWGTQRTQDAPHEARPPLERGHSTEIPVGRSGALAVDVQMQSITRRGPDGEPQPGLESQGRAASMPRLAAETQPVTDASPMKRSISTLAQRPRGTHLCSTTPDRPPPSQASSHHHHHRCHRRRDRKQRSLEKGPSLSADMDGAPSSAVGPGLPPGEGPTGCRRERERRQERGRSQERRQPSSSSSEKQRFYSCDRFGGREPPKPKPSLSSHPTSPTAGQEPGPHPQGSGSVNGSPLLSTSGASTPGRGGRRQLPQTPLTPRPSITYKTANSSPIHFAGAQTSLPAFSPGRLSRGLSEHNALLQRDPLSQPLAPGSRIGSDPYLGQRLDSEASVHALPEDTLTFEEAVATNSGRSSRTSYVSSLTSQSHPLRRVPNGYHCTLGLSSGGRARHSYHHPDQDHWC
T1 sequence (P54284 whole entry partner): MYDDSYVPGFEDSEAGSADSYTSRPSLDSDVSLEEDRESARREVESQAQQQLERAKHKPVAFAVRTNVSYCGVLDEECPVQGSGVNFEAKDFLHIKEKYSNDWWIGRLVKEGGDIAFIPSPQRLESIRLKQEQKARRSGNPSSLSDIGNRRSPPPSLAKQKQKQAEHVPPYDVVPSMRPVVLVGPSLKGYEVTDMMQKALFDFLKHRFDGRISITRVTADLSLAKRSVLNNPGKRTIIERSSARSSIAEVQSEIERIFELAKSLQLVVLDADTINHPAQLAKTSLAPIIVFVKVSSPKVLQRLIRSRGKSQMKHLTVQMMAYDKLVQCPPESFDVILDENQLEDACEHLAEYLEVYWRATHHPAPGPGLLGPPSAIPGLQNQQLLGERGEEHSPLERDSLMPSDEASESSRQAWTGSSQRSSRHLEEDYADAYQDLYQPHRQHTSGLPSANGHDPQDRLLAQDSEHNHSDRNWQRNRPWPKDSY
T1 sequence (P54289 25-956 partner limits assumed): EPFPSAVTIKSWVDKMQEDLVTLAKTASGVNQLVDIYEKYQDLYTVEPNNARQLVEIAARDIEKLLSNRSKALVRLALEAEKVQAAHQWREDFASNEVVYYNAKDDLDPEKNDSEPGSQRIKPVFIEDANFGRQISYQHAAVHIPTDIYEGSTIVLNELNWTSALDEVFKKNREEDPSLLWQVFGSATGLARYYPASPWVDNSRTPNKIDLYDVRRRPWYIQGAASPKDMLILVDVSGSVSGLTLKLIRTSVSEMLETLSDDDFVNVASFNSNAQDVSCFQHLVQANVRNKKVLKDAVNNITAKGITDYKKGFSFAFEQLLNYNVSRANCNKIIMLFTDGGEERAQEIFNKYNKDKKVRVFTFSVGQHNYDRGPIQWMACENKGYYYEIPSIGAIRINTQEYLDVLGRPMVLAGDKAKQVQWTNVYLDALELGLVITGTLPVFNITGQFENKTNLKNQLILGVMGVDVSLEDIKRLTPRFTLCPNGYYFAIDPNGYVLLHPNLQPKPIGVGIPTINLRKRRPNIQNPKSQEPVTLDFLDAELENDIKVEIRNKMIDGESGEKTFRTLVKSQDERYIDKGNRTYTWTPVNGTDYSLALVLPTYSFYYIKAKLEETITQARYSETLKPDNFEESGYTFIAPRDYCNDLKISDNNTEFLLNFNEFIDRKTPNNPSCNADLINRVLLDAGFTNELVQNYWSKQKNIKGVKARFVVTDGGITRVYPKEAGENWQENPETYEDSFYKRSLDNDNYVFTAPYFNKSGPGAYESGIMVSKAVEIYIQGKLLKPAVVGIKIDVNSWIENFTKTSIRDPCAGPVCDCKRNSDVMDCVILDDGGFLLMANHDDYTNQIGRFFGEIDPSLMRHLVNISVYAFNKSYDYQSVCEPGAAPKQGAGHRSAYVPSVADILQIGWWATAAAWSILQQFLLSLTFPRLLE
T1 sequence (P54289 957-1103 partner limits assumed): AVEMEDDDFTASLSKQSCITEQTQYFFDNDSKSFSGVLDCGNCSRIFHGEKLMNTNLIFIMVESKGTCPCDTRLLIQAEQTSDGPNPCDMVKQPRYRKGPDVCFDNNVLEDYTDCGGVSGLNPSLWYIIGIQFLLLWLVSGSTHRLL

SMILES	IC50 (N-type calcium channel [1])	IC50 (N-type calcium channel [2])
O=C(NCCC(c1ccccc1)c1ccccc1)C1=C(COCCC2CCCCC2)NC(c2ccccc2)=NC1c1cccc(Cl)c1 (stereo not shown) [Example 1, 4-(3-chlorophenyl)-6-[(2-cyclohexylethoxy)methyl]-5-(3,3-diphenylpropylcarbamoyl)-2-phenyl-1,4-dihydropyrimidine]	7940 nM	1260 nM
O=C(NC/C=C/c1ccccc1)C1=C(COCCC2CCCCC2)NC(c2ccccc2)=NC1c1cccc(Cl)c1 (stereo not shown) [Example 2, 4-(3-chlorophenyl)-6-[(2-cyclohexylethoxy)methyl]-2-phenyl-5-[(3-phenyl-2-propene-1-yl)-carbamoyl]-1,4-dihydropyrimidine]	–	5890 nM
CC1=C(C(=O)NCCC(c2ccccc2)c2ccccc2)C(c2cccc(Cl)c2)NC(=O)N1 (stereo not shown) [Example 3, 4-(3-chlorophenyl)-6-methyl-2-oxo-1,2,3,4-tetrahydropyrimidine-5-carboxylic acid (3,3-diphenylpropyl)amide]	2510 nM	891 nM
COCC1=C(C(=O)NCCCc2ccccc2)C(c2cccc(Cl)c2)NC(=O)N1 (stereo not shown) [Example 6, 4-(3-chlorophenyl)-6-methoxymethyl-2-oxo-1,2,3,4-tetrahydropyrimidine-5-carboxylic acid (3-phenylpropyl)amide]	5010 nM	977 nM
[N-]=[N+]=NCCOCC1=C(C(=O)NCCC(c2ccccc2)c2ccccc2)C(c2cccc(Cl)c2)NC(=O)N1 (stereo not shown) [Example 15, 6-(2-azidoethoxymethyl)-4-(3-chlorophenyl)-2-oxo-1,2,3,4-tetrahydropyrimidine-5-carboxylic acid (3,3-diphenylpropyl)amide]	2510 nM	–
CCOC(=O)CN1C(=O)NC(C)=C(C(=O)NC/C=C/c2ccccc2)C1c1cccc(Cl)c1 (stereo not shown) [Example 45, ethyl [6-(3-chlorophenyl)-4-methyl-2-oxo-5-(3-phenyl-2-propene-1-ylcarbamoyl)-3,6-dihydro-2H-pyrimidine-1-yl]acetate]	3980 nM	–
CC1=C(C(=O)NCCC(c2ccccc2)c2ccccc2)C(c2ccc(Cl)c(Cl)c2)N=C(c2cccnc2)N1 (stereo not shown) [Example 64, 4-(3,4-dichlorophenyl)-6-methyl-2-pyridine-3-yl-1,4-dihydropyrimidine-5-carboxylic acid (3,3-diphenylpropyl)amide]	1260 nM	–
CC1=C(C(=O)NCCC(c2ccccc2)c2ccccc2)C(c2cccc(Cl)c2)N=C(c2ccccc2)N1 (stereo not shown) [Example 67, 4-(3-chlorophenyl)-6-methyl-2-phenyl-1,4-dihydro-pyrimidine-5-carboxylic acid (3,3-diphenylpropyl)amide]	1580 nM	–
CC1=C(C(=O)NC/C=C/c2ccccc2)C(c2cccc(Cl)c2)N=C(c2ccccc2)N1 (stereo not shown) [Example 68, 4-(3-chlorophenyl)-6-methyl-2-phenyl-1,4-dihydropyrimidine-5-carboxylic acid (3-phenyl-2-propene-1-yl)amide]	1260 nM	–
CC1=C(C(=O)NC/C=C/c2ccccc2)C(c2ccc(Cl)c(Cl)c2)N=C(c2ccccc2)N1 (stereo not shown) [Example 75, 4-(3,4-dichlorophenyl)-6-methyl-2-phenyl-1,4-dihydropyrimidine-5-carboxylic acid (3-phenyl-2-propene-1-yl)amide]	2000 nM	–
